A short description of data set [1]: Equivalent alkane carbon number (EACN) in model microemulsion system. Format: physicochemical. Conditions: C10E5/water/isopropyl myristate model system, 3% wt perfume ingredient. The method, then:
EACN values provide information on polarity and surface activity of apolar ingredients. Tchakalova and Fieber (J. of Surfactants and Detergents, 2012, 15(2):167-177) classified perfume ingredients based on values of EACNmix, the EACN of a mixture consisting of a test perfume ingredient and a reference oil (isopropyl myristate). The same model system and method were used to measure the EACN values of perfume ingredients with antimicrobial activities. Different perfume ingredients were added to the model microemulsion system shown in Table 1, in which the nonionic pentaethylene glycol mono n-decyl ether (C10E5) was used as surfactant. Phase transition temperatures of the system from Winsor I to Winsor III, and from Winsor III to Winsor II were determined using a water bath. Alkanes with different alkane carbon numbers (octane, decane, dodecane and hexadecane) were used to establish a linear correlation curve between EACN and the PIT, which is the average of the transitions from Winsor I to Winsor III, and from Winsor III to Winsor II, respectively. EACNmix was then calculated based on the linear relationship and the measured PIT for systems containing different perfume ingredients. The EACN of the pure perfume ingredient was calculated based on the molar ratio of the tested PRMs in the oil phase using following equation: […]
wherein n and nref are the molar fractions of tested perfume ingredient and the reference ingredient (i.e., isopropyl myristate) in the oil phase, respectively.

Data set [2] in a line: physchem. It is filed as physicochemical. The settings on record: for chromatographic logP: n-octanol/water, HPLC method, read-out: Log P. The method, then: The partition coefficient (P) is defined as the ratio of the concentrations (C) to the equilibrium of a dissolved and highly diluted substance in a biphasic system consisting of two almost immiscible solvents.
In the case of n-octanol and water:
The partition coefficient P is the quotient of two concentrations, it is generally indicated in its logarithmic form, base 10 (LogP).
The log P values of different perfume ingredients were measured using standard high performance liquid chromatography method, according to the reference (OECD, guideline No. 117, adopted on 13 Apr. 2004, Partition coefficient (n-octanol-water), High Performance Liquid Chromatography (HPLC) Method).

Data set [3] concerns Escherichia coli ATCC 10536. As to the kind of experiment: Robotic BCT test of perfume ingredients in model surfactant bases. Format: cell-based. The settings on record: for Log reduction (Log CFU/mL) Base 3: Base 3: SLES 1.5%, coco-glucoside 0.75%; for Log reduction (Log CFU/mL) Base 4: Base 4: SLES 2.25%, sodium xylene sulfonate 3%; for log reduction at 0.5 %: Escherichia coli, ATCC10536, 45 s. As to the method: The surfactant bases tested included 1) sodium lauryl ether sulfate (SLES) and cocamidopropyl betaine (CAPB) at 3:1 mass ratios; 2) SLES, CAPB and coco-glucoside at 2:1:1 mass ratios. Test samples were prepared by mixing perfume ingredients with the surfactant bases and vigorously stirred for 24 hrs. Concentration of perfume ingredients in the bases was 0.5% wt. Samples with transparent appearance were selected for antimicrobial testing.
Antimicrobial efficacy was tested against a representative Gram-negative bacterial strain, Escherichia coli ATCC 10536, using robotic bacteria contact time (BCT) test based on European standard EN-1276 and EP2787827(B1).
Preparation of screening plate and dilution plate: Aliquots (270 µl) of compositions were dispensed into the wells of a 96-well microtiter plate (MTP) along two columns (B1-H1, and B7-H7), and 270 µl of MilliQ water was added to well A1 and A7 as the control samples. This MTP was labelled as the “Screening plate”. In another MTP, labelled as the “Dilution plate”, 270 µL of Dey-Engley (D/E) neutralizing solution was added to column 1 and column 7. 270 µl of tryptone diluent solution was added to columns 2-6 and columns 8-12 of the Dilution MTP by a Hamilton robotic liquid handling station.
BCT test & neutralization & dilution: Bacterial stock (30 µl) was then added to columns 1 of the ‘Screening plate’ and mixed by a Hamilton robotic liquid handling station. After a contact time of 45 seconds, 30 µl of the mixtures in column 1 were transferred into the corresponding wells of column 1 of the ‘Dilution plate’. After neutralizing for 5 minutes in the D/E neutralizing solution, 30 µl of the neutralized mixtures were transferred from column 1 to column 2 of the Dilution MTP and mixed, followed by transferring 30 µl of the mixtures from column 2 into column 3. This process was repeated serially diluting the bacteria suspensions across the plate to column 6. Bacterial stock (30 µl) was then added to columns 7 of the ‘Screening plate’ and mixed by a Hamilton robotic liquid handling station. After a contact time of 45 seconds, 30 µl of the mixtures in column 7 were transferred into the corresponding wells of column 7 of the ‘Dilution plate’. After neutralizing for 5 minutes in the D/E neutralizing solution, 30 µl of the mixtures were transferred from column 7 to column 8 of the Dilution MTP and mixed, followed by transferring further 30 µl mixtures from column 8 into column 9. This process was repeated serially diluting the bacteria suspensions across the plate to column 12.
Plating: 30 µl volumes from each well in the Dilution MTP were transferred onto four Tryptone Soya Agar (TSA) plates. The TSA plates were allowed to stand for about two hours so that the 30 µl inocula spots could dry and the plates were then inverted and incubated overnight at 37° C. for 24 hours. After incubation, colonies were counted.
Calculating log reduction: Select the dilutions with colony counts, and calculate the viable cell counts (CFU/mL) of mixture in ‘Screening plate’, and log reduction against the control MilliQ sample was calculated.

Data set [4] relates to E. coli ATCC 10536. As to the kind of experiment: Bacterial contact time (BCT) test of perfume ingredients in 20% ethanol solution (EN-1276 based). The settings on record: 20% EtOH, 45 s. Format: cell-based, Escherichia coli. As to the method: Bacterial suspensions of E. coli ATCC 10536 were prepared for antimicrobial testing as follows. Stock cultures stored at -80° C. were sub-cultured onto Tryptic Soy Agar (TSA) plate, and incubated at 37° C. for 24 h to obtain single colonies. Single colonies of the primary cultures were streaked onto TSA plates and incubated at 37° C. for 24 h to prepare the secondary cultures. Single colonies of secondary cultures were inoculated into 50 mL of Tryptic Soy broth (TSB), incubated at 37° C. 180 rpm for 18 h. Aliquots (0.5 ml) of the 18 h culture were inoculated into 50 ml of fresh TSB, and incubated at 37° C. 180 rpm for 2- 3 hours. When the OD600 nm value of the broth reached 1-2, cells were harvested by centrifugation at 5,000 rpm for 10 min, and then resuspended in the same fresh broth media to achieve the target level of 1-5 × 10^8 colony forming unit (CFU)/mL. This suspension was used for further antimicrobial tests.
Unless indicated otherwise, log reduction testing according to the present invention is determined in accordance with the following method.
Bacterial contact time (BCT) test based on European standard EN-1276 was used to determine dose dependent bactericidal activity of perfume ingredients in 20% ethanol solutions.
Perfume ingredients of various concentrations (doses) were prepared in 40% ethanol solutions. Eleven replicates of each sample were added into 96-well microtiter plates (120 µl per well) in column 1-11 of one row, with row B as the control sample of the ethanol solution. Then, 120 µl of cell suspension at a concentration of approximately 1-5 × 10^8 CFU/ML (as prepared above) were added to each well of the microtiter plate. A specified contact time (45 s) was allowed for target bacterial strains. At the end of the contact time, serial dilutions were prepared in 96 well plates with growth media: 3 times of 1 in 10 dilutions and followed by 17 times of 1 in 2 dilutions. Each plate was sealed and incubated at 37° C. under agitation (180 rpm). After incubation, turbidity of the wells (OD 600 nm) was recorded by Tecan microplate reader. Turbid cells were regarded as positive growth of viable cells. The total number of viable cells (log CFU/mL) for each sample was calculated. And the log reduction for each test composition at the final concentration (dose) was calculated against the control sample of the 20% ethanol solution.
Table 20 show the bactericidal dose related effect (log reduction) and calculated effect fraction of the Mixture C and compositions against E. coli ATCC 10536. Stock of compositions were prepared in 100% ethanol, then diluted in MilliQ water to obtain 2 × final concentration in 40% ethanol. BCT tests were conducted on samples against E. coli for a contact time of 45 s.

[5] abbreviates: 0.5% perfume ingredient, CAPB 0.75%, contact 45 s.
The mark [6] stands for this setting: 0.5% perfume ingredient, Base 1: SLES 1.875%, CAPB 0.625%, contact 45 s, read-out: Log reduction in Base 1 (Log CFU/mL).
Where [7] appears, read: 0.5% perfume ingredient, Base 2: SLES 2.25%, CAPB 0.75%, contact 45 s, read-out: Log reduction (Log CFU/mL) Base 2.

Where two headings read alike, the source gives them in different places.

These results are taken from patent publication US20230105693A1, “ANTIMICROBIAL COMPOSITIONS” (Firmenich SA, priority 2020, published 2023).

Take “2 /3 //4-(5,5,6-trimethylbicyclo[2.2.1]hept-2-yl)-1-cyclohexanol(A/B/C) + 2-(1,7,7-trimethylbicyclo[2.2.1]hept-2-yl)-1-cyclohexanol (D)”: the EACN in data set [1] is -16.52. The “Log P” value in data set [2] came to 5.23. For the same molecule, in data set [3] (0.5% perfume ingredient, Base 1: SLES 1.875%, CAPB 0.625%, contact 45 s), the “Log reduction in Base 1 (Log CFU/mL)” value was found to be 0.4 Log CFU/mL. Also, the “Log reduction (Log CFU/mL) Base 2” value in data set [3] (0.5% perfume ingredient, Base 2: SLES 2.25%, CAPB 0.75%, contact 45 s) was -1.0 Log CFU/mL. Further, in data set [3] (setting [5]), the “Log reduction (Log CFU/mL) Base 3” value is given as “Insoluble” and the “Log reduction (Log CFU/mL) Base 4” value is recorded as -0.2 Log CFU/mL.
In the case of `O=C1CCC[C@H]2[C@@H]1[C@H]1C=C[C@@H]2C1` (racemic) [(1RS,2SR,7RS,8SR)-tricyclo[6.2.1.0^~2,7^~]undec-9-en-3-one OR (1RS,2RS,7S,8SR)-tricyclo[6.2.1.0^~2, 7^~] undec-9-en-3-one], the EACN in data set [1] is listed as -5.81. Besides, the “Log P” value in data set [2] was 2.53.
On to `CCC(C)(O)CCCC(C)C` (racemic) [(+-)-3,7-dimethyl-3-octanol], for which the EACN in data set [1] is given as -4.83. The chromatographic logP in data set [2] was 3.78. Moreover, the “Log reduction (Log CFU/mL) Base 3” value in data set [3] (setting [5]) is reported as 0.3 Log CFU/mL. Besides, in data set [3] (setting [5]), the “Log reduction (Log CFU/mL) Base 4” value was found to be 0.4 Log CFU/mL. Moreover, the log reduction at 0.5 % in data set [3] (setting [6]) came to 1.9 ± 1.6; in data set [3] (setting [7]), 0.
On to `CCCCCC1CCC(=O)O1` (racemic) [(+-)-4-nonanolide], for which the EACN in data set [1] was -11.24. Besides, in data set [2], the chromatographic logP came out at 2.45.
Regarding `C=C/C(C)=C\CC1OC1(C)C` (racemic) [(+-)-(2,2-dimethyl-3-[(2Z)-3-methyl-2,4-pentadien-1-yl]oxirane OR (+-)-(2,2-dimethyl-3-[(2E)-3-methyl-2,4-pentadien-1-yl]oxirane], the EACN in data set [1] is given as -1.45. In addition, the “Log P” value in data set [2] was determined as 2.92.
For `CC1=CC[C@H]([C@H](C)CCO)CC1` (single isomer, unassigned) the same measures were -34.57 and 3.46.
In the case of `CC1=C(C=O)C(C)(C)CC=C1` [2,6,6-trimethyl-1,3-cyclohexadiene-1-carbaldehyde], the EACN in data set [1] was -6.62. Besides, the chromatographic logP in data set [2] is 2.57.
The like results for `CCCc1ccc(O)c(OC)c1` [2-methoxy-4-propyl phenol] were, in that order, -34.16 and 2.39.
For `C/C(=C\c1ccc(C)cc1)CO` [(2E)-2-methyl-3-(4-methylphenyl)-2-propen-1-ol] the same measures were -36.15 and 2.29.
The like results for `CCC/C=C/COC(C)=O` [(E)-2-hexenyl acetate] were, in that order, 1.12 and 2.59.
Turning to `CC(C)=CCC/C(C)=C/CO` [(E)-3,7-dimethyl-2,6-octadien-1-ol], the Effect fraction is recorded as -0.020 in data set [4] (dose 0.040% w/v); 0.130 in data set [4] (dose 0.050% w/v); 0.350 in data set [4] (dose 0.055% w/v); 0.660 in data set [4] (dose 0.060% w/v); 1.000 in data set [4] (dose 0.070% w/v). Further, the Log reduction is -0.175 in data set [4] (dose 0.040% w/v); 0.909 in data set [4] (dose 0.050% w/v); 2.474 in data set [4] (dose 0.055% w/v); 4.760 in data set [4] (dose 0.060% w/v); 7.160 in data set [4] (dose 0.070% w/v). The EACN in data set [1] was -28.65. Moreover, the “Log reduction (Log CFU/mL) Base 3” value in data set [3] (setting [5]) came to 4.2 Log CFU/mL. In addition, in data set [3] (setting [5]), the “Log reduction (Log CFU/mL) Base 4” value was “Insoluble”. Moreover, the log reduction at 0.5 % in data set [3] (setting [6]) is greater than 5.4; in data set [3] (setting [7]), 0.5; in data set [3] (model base 1, table by functional group, read-out: Log reduction in Base 1 (Log CFU/mL)), greater than 5.5.
As to `N#C/C=C/c1ccccc1` [(E)-3-phenyl-2-propenenitrile], the EACN in data set [1] is -14.36. Besides, in data set [2], the chromatographic logP was determined as 1.98.
Regarding `CC/C=C\CCCCCO` [(Z)-6-nonen-1-ol], in data set [1], the EACN is reported as -29.91. Also, the log partition coefficient (Log P) in data set [2] was determined as 3.4.
On to `CCOC(=O)/C=C/c1ccccc1` [Ethyl(E)-3-phenyl-2-propenoate], for which the chromatographic logP in data set [2] amounted to 3. Also, in data set [3] (setting [5]), the “Log reduction (Log CFU/mL) Base 3” value was “Insoluble” and the “Log reduction (Log CFU/mL) Base 4” value was “Insoluble”. Moreover, the log reduction at 0.5 % in data set [3] (setting [6]) was determined as 1.9 ± 1. Besides, the log reduction at 0.5 % in data set [3] (setting [7]) was found to be 0.
As to `COC(=O)c1ccccc1N` [methyl 2-aminobenzoate], the EACN in data set [1] is on record as -22.57. Moreover, the chromatographic logP in data set [2] was 1.83.
